Test results reported in patent US5045537A, “Hydrophilic renin inhibitors, their preparation and use” (Sandoz Ltd., priority 1987, dated 1991).

Key:
FeLV = details: 30 mg treatment over 14 days; cited from earlier work
human plasma renin = biological target: T1, human plasma renin (Homo sapiens, UniProt P00797); assay: Antibody-trapping method of Poulsen and Jorgensen, human plasma renin activity; assay type: biochemical; details: antibody trapping test
T1 construct: human plasma renin activity; from tissue; host or cells: human plasma
T1 sequence (P00797 67-406): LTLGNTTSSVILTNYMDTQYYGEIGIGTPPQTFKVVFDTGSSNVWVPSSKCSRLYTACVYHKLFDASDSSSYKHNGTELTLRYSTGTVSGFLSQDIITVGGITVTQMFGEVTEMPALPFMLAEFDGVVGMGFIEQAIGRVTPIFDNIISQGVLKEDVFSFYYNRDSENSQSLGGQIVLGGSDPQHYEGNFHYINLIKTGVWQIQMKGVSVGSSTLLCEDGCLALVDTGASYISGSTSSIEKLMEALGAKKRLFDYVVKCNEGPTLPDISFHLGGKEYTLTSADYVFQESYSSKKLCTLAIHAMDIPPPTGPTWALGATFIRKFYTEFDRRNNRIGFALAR
Source text: In the antibody-trapping method of K. Poulsen and J. Jorgensen (J. Clin. Endocrin. Metab. 39, [1974] 816-825), they inhibit human plasma renin activity at a concentration of 10^-5 M to 10^-11 M.

SMILES	cure (FeLV)	reduction of FeLV-titres by a factor (FeLV)	IC50 (human plasma renin) [nM]	highest inhibiting concentration (human plasma renin) [nM/l]	lowest inhibiting concentration (human plasma renin)
Cc1cn([C@H]2C[C@H](N=[N+]=[N-])[C@@H](CO)O2)c(=O)[nH]c1=O [3'-azido-3'-deoxy-thymidine]	no cure was achieved	10	–	–	–
CCCC[C@H](NC(=O)[C@H](Cc1cccs1)NC(=O)COCCOCCOCCOC)C(=O)N[C@@H](CC1CCCCC1)[C@@H](O)CC(=O)N[C@@H](CC(C)C)C(=O)NCc1ccccn1 [Example 46, 3EG-Thala-Nle-Chatin-Leu-α-Pic]	–	–	1.5	15	0,15 nM/l
